The supplement of paper PMC10307832

Assays:
Assay in all cases: relative viability (nuclei count vs DMSO), 5 days (fraction); higher = more cells survive
[1] = test system: A-427
In short: (§1)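 Lung cancer cell lines, seeded in 1536-well plates, were treated the following day by pin tool with a single drug or with five library-drug doses (not always all listed) in √10 steps on top of a fixed anchor-drug dose. Cells were fixed and nuclei stained in one step after 5 days, and nuclei were counted. Relative viability is the nuclei count for treated wells divided by that for vehicle wells, reported as medians of duplicate plates.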

[2] = test system: ChaGo-K-1
In short: as §1

[3] = test system: EKVX
In short: as §1

[4] = test system: H3255
In short: as §1

[5] = test system: LK-2
In short: as §1

[6] = test system: NCI-H1355
In short: as §1

[7] = test system: NCI-H1650
In short: as §1

[8] = test system: NCI-H1666
In short: as §1

[9] = test system: NCI-H1755
In short: as §1

[10] = test system: NCI-H1944
In short: as §1

[11] = test system: NCI-H2085
In short: as §1

[12] = test system: NCI-H2228
In short: as §1

Compound `Cc1cnc(-c2cnc(NCCNc3ccc(C#N)cn3)nc2-c2ccc(Cl)cc2Cl)[nH]1` + Cc1cc(Nc2cc(N3CCN(C)CC3)nc(Sc3ccc(NC(=O)C4CC4)cc3)n2)n[nH]1 [Tozasertib] (partner 0.1 µM) has a relative viability ([1]; first compound 0.08 µM) of 0.232, a relative viability ([1]; first compound 0.253 µM) of 0.194 and a relative viability ([1]; first compound 0.8 µM) of 0.235. For the same compound, the relative viability ([1]; first compound 2.53 µM) was 0.186, the relative viability ([2]; first compound 0.08 µM) was 0.241 and the relative viability ([2]; first compound 0.253 µM) was 0.215. The relative viability ([2]; first compound 0.8 µM) was 0.231, the relative viability ([2]; first compound 2.53 µM) was 0.22 and the relative viability ([3]; first compound 0.08 µM) was 0.408. The relative viability ([3]; first compound 0.253 µM) was 0.357, the relative viability ([3]; first compound 0.8 µM) was 0.347 and the relative viability ([3]; first compound 2.53 µM) was 0.335. The relative viability ([4]; first compound 0.08 µM) was 0.951, the relative viability ([4]; first compound 0.253 µM) was 0.511 and the relative viability ([4]; first compound 0.8 µM) was 0.593. For the same compound, the relative viability ([4]; first compound 2.53 µM) was 0.65, the relative viability ([5]; first compound 0.08 µM) was 0.164 and the relative viability ([5]; first compound 0.253 µM) was 0.176. For the same compound, the relative viability ([5]; first compound 0.8 µM) was 0.188, the relative viability ([5]; first compound 2.53 µM) was 0.148 and the relative viability ([6]; first compound 0.08 µM) was 0.662. It also gave a relative viability ([6]; first compound 0.253 µM) of 0.474, a relative viability ([6]; first compound 0.8 µM) of 0.56 and a relative viability ([6]; first compound 2.53 µM) of 0.374. The relative viability ([7]; first compound 0.08 µM) was 0.476, the relative viability ([7]; first compound 0.253 µM) was 0.43 and the relative viability ([7]; first compound 0.8 µM) was 0.353. It also gave a relative viability ([7]; first compound 2.53 µM) of 0.229, a relative viability ([8]; first compound 0.08 µM) of 0.63 and a relative viability ([8]; first compound 0.253 µM) of 0.593. The relative viability ([8]; first compound 0.8 µM) was 0.623, the relative viability ([8]; first compound 2.53 µM) was 0.626 and the relative viability ([9]; first compound 0.08 µM) was 0.585. For the same compound, the relative viability ([9]; first compound 0.253 µM) was 0.521, the relative viability ([9]; first compound 0.8 µM) was 0.595 and the relative viability ([9]; first compound 2.53 µM) was 0.539. The relative viability ([10]; first compound 0.08 µM) was 0.253, the relative viability ([10]; first compound 0.8 µM) was 0.254 and the relative viability ([10]; first compound 2.53 µM) was 0.252. The relative viability ([11]; first compound 0.08 µM) was 0.886, the relative viability ([11]; first compound 0.253 µM) was 0.684 and the relative viability ([11]; first compound 0.8 µM) was 0.56. The relative viability ([11]; first compound 2.53 µM) was 0.469, the relative viability ([12]; first compound 0.08 µM) was 0.283 and the relative viability ([12]; first compound 0.253 µM) was 0.267.
